Measured values taken from ChEMBL document CHEMBL1201862, “PubChem BioAssay data set” (2004).
Calls of active or inactive are those of the source.

What was measured:
[1] = Counterscreen for inhibitors of Trypanosoma brucei methionyl tRNA synthetase (MetRS): Luminescence-based cell-based high throughput dose response assay to identify compounds that are cytotoxic to Jurkat human T lymphocyte cells.; assay type: functional
[2] = biological target: T1, Methionyl-tRNA synthetase, putative (Trypanosoma brucei brucei, UniProt Q38C91); assay type: functional, Trypanosoma brucei brucei strain 927/4 GUTat10.1
T1 sequence (Q38C91 whole entry): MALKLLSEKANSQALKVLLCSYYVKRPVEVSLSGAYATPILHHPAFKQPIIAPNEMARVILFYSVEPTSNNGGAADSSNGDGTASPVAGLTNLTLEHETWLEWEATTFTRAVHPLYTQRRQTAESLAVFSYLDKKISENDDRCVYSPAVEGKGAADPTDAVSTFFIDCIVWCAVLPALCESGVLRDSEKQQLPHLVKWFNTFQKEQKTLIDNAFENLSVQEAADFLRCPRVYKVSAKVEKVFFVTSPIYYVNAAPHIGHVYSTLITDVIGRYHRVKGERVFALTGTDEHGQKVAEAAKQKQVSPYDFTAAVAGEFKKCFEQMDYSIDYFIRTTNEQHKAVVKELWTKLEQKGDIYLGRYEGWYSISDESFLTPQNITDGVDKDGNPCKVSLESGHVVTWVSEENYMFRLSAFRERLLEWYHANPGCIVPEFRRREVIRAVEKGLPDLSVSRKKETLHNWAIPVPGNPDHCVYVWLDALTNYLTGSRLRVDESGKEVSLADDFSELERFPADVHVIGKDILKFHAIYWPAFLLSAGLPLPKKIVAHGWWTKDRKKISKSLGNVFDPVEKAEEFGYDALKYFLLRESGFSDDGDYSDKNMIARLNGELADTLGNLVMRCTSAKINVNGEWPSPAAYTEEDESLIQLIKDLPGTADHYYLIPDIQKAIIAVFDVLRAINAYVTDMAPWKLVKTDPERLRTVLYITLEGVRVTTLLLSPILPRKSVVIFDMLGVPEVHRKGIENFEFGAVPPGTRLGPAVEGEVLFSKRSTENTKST

[3] = biological target: T1, Methionyl-tRNA synthetase, putative; assay type: functional, Trypanosoma brucei brucei strain 927/4 GUTat10.1; remark: listed apart in the source
[4] = biological target: T2, Endoribonuclease toxin MazF (Escherichia coli K-12, UniProt P0AE70); experiment: substrate-only fluorescence increase artefacts – biochemical, single-stranded RNase substrate, counter-screen for MazEF activator project, dose response (AID 588502); assay type: functional
T2 sequence (P0AE70 whole entry): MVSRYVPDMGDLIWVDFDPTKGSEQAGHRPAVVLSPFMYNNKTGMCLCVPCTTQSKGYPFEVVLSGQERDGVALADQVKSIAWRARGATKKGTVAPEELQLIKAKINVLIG

[5] = biological target: Induced myeloid leukemia cell differentiation protein Mcl-1 (Homo sapiens, UniProt Q07820); assay type: functional
[6] = biological target: T2, Endoribonuclease toxin MazF; experiment: activation of MazEF endoribonuclease cleavage – biochemical, fluorescence, single-stranded RNA substrate, uHTS hits, dose response (AID 588481); assay type: functional
[7] = NIH3T3 cell viability loss – ATP luminescence, mouse fibroblasts, counter-screen, dose response (AID 2010); assay type: functional, cell-based;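 also: cells exposed to compound for about 90 hours before reading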
[8] = Trypanosoma cruzi growth suppression in host cells – NIH3T3 host cells, beta-gal luminescence, confirmation (AID 2044); assay type: functional, cell-based;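 also: intracellular parasites grown in NIH/3T3 mouse fibroblasts as host cells; luminescent beta-galactosidase reporter signal from transgenic T. cruzi replicating inside host cells; inhibitors lower the luminescence signal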
Protein Wnt-3a = Protein Wnt-3a (Mus musculus, UniProt P27467); experiment: antagonism of Wnt3a pathway luciferase reporter – Wnt-LIGHT cells, luminescence, selectivity assay for Gli-SUFU antagonist project, dose response (AID 651570); assay type: functional; details: read-out: IC50_Mean;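 also: Wnt-LIGHT reporter cells stimulated with conditioned medium from Wnt3a-producing cells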
[9] = biological target: 72 kDa type IV collagenase (Homo sapiens, UniProt P08253); experiment: Dose Response validation of uHTS RPN11 inhibitor hits using a MMP-2 Fluorescence assay.; assay type: functional
Streptococcus = experiment: GAS UMAA2166 growth inhibition – luminescence, BacTiterGlo, counter-screen for streptokinase expression inhibitor project, dose response (AID 1915); assay type: functional, organism-based;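 also: potency for reduction of bacterial viability or growth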
[10] = biological target: 26S proteasome non-ATPase regulatory subunit 14 (Homo sapiens, UniProt O00487); experiment: inhibition of proteasome subunit RPN11 – biochemical, fluorescence polarization, uHTS hits, confirmation (AID 602368); assay type: functional
Prothrombin = Prothrombin (Bos taurus, UniProt P00735); experiment: thrombin protease inhibitors – biochemical, fluorescence polarization, uHTS hits, dose response (AID 602369); assay type: functional
[11] = test system: Streptococcus sp. 'group A'; experiment: Streptococcus pyogenes SK(-)GAS viability under kanamycin – luminescence, BacTiterGlo, confirmation, counter-screen for streptokinase expression inhibitor project, dose response (AID 1900); assay type: functional, organism-based
H9c2 = experiment: cells; assay type: functional, cell-based; details: Rattus norvegicus, H9c2, Myocardium;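 also: confirmatory concentration-response retest of ultra-high-throughput screening hits for modulation of myocardial damage; cell death induced by hydrogen peroxide oxidative stress; compound pretreatment for 60 min then peroxide exposure for 2 h; potency is for protecting the cells against peroxide damage rather than for killing them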
CHO = CHO cell viability loss, potency – luminescence, cytotoxicity control for TLR9-MyD88 binding inhibitor project, dose response (AID 588339); assay type: functional, cell-based, hamster; details: Cricetulus griseus;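 also: CHO cells stably coexpressing TLR9 and MyD88 fusions from primary screen; compound exposure lasted 48 hours before viability readout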
Beta Lactamase = Beta Lactamase (Pseudomonas aeruginosa, UniProt Q932Y6); experiment: BLA reporter interference, concentration series – BLA reporter cells, FRET fluorescence, artefact control for TLR9-MyD88 binding inhibitor project, dose response (AID 588341); assay type: cell-based;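 also: cell based assay in CHO-K1 cells stably expressing beta-lactamase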
INS1 = experiment: INS-1E survival protection against cytokine death – cell-based, luminescence, retest, dose response (AID 449756); assay type: functional; details: Rattus norvegicus;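 also: cell death triggered by IL-1 beta plus TNF-alpha plus IFN-gamma mixture; protective hits raise ATP signal compared with cytokine alone wells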
Genome polyprotein = Genome polyprotein (dengue virus type 2, UniProt P29990); experiment: flavivirus cap methylation enzyme inhibition – biochemical, confirmation dose response, primary screen (AID 588689); assay type: functional
cells [12] = assay type: functional, cell-based
[13] = biological target: Glucose-6-phosphate 1-dehydrogenase (Homo sapiens, UniProt P11413); experiment: inhibition of Homo sapiens G6PD, dose series – biochemical, fluorescence, selectivity assay for P. falciparum G6PD inhibitor project, dose response (AID 504792); assay type: functional
[14] = biological target: Photoreceptor-specific nuclear receptor (Homo sapiens, UniProt Q9Y5X4); assay type: functional, cell-based;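 also: CHO-S cells with Gal4-NCOR and VP16-NR2E3 two-hybrid luciferase reporter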
cells [15] = assay type: functional, cell-based; remark: listed apart in the source
Vero = experiment: cells; assay type: functional, cell-based; details: Chlorocebus sabaeus
[16] = activation of miR-122 Renilla sensor silencing – cell-based, Huh7 psiCHECK-miR122, Renilla luciferase, cherry-picked, dose response (AID 651956); assay type: functional;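 also: huh7 hepatoma cells stably carrying a psiCHECK-2 miR-122 sensor plasmid; renilla luciferase signal reporting endogenous miR-122 activity after 48 h compound exposure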
Estrogen receptor = biological target: T3, Estrogen receptor (Homo sapiens, UniProt P03372);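 also: potency for inhibiting coactivator peptide recruitment to the receptor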
T3 sequence (P03372 whole entry): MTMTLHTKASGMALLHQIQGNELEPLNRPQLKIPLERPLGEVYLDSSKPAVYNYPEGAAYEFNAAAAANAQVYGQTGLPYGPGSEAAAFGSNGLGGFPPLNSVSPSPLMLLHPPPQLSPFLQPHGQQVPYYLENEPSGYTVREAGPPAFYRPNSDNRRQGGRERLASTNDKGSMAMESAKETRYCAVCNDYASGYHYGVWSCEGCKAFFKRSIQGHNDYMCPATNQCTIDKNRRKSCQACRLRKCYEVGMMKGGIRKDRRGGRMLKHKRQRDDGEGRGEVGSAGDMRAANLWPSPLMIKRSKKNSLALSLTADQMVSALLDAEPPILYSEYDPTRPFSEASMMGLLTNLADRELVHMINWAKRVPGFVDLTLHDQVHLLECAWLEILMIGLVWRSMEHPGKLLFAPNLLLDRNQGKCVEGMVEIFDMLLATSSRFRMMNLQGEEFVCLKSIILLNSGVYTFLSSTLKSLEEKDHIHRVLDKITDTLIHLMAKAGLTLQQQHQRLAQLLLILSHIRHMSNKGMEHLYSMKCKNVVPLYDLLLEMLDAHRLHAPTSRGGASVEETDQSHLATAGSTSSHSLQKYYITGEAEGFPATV

[17] = biological target: T4, Corticotropin-releasing factor receptor 2/Corticotropin-releasing factor-binding protein (Homo sapiens, UniProt P24387+Q13324); experiment: Dose Response confirmation of uHTS hits for small molecule antagonists of the CRF-binding protein and CRF-R2 receptor complex.; assay type: functional; details: read-out: IC50_Mean
T4 sequence (Q13324 whole entry): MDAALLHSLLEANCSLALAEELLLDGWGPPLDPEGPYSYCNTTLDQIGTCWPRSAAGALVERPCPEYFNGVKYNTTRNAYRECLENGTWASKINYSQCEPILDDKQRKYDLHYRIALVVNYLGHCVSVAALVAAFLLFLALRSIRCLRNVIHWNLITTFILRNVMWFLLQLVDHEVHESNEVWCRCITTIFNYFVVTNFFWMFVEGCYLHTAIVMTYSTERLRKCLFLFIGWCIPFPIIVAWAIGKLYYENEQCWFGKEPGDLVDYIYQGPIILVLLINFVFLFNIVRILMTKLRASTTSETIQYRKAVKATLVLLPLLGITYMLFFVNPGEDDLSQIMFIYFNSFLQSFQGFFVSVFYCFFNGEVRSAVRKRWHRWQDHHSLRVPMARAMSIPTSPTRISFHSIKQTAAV
T4 sequence (P24387 whole entry): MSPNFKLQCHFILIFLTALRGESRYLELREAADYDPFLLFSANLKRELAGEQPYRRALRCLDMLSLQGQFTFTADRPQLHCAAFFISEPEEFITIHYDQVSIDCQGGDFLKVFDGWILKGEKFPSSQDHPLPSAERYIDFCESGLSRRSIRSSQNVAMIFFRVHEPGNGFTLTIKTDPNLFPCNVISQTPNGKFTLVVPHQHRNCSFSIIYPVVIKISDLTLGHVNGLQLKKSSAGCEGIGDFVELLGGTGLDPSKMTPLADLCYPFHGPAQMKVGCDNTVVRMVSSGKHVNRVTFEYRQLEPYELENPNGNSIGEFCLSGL

[18] = blockers of CRF-binding protein–CRF-R2 complex – cell-based, uHTS hits, 384-well, dose response (AID 651639); assay type: functional, Homo sapiens; details: read-out: IC50_Mean
[19] = biological target: T5, Calpain-2 catalytic subunit (Sus scrofa, UniProt P43367); experiment: m-calpain protease blockers, concentration series – biochemical, fluorogenic peptide substrate, dose response (AID 1420); assay type: functional
T5 sequence (P43367 whole entry): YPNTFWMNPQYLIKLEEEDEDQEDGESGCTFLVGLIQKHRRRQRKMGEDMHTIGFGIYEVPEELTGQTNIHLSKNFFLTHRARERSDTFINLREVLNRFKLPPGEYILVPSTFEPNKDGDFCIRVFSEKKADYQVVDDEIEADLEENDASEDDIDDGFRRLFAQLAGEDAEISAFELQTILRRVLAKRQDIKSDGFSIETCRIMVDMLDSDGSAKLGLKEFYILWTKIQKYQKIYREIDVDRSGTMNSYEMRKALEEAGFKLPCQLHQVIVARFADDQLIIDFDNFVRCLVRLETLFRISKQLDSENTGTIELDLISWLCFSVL

[20] = biological target: T4, Corticotropin-releasing factor receptor 2/Corticotropin-releasing factor-binding protein; experiment: activators of CRF receptor 2 with binding protein – uHTS hits, confirmation (AID 602473); assay type: functional; details: read-out: EC50_Mean

O=C(Nc1ccc(C(=O)O)cc1)/C(=C\C=C\c1ccccc1)NC(=O)c1ccc(Br)cc1
IC50 [1]: 83.3 µM (inactive)
IC50 [2]: 29.6 µM (inactive)
IC50 [3]: 11.5 µM (inactive)

COc1ccc(-c2ccc(/C=C3/C(=N)N4C=CSC4=NC3=O)o2)c([N+](=O)[O-])c1
EC50 [4]: > 99 µM (inactive)
IC50 [5]: 1.52 µM (active)
EC50 [6]: 19.6 µM (active)

CCOc1ccc(-n2c(-c3ccc(Cl)cc3)c[n+]3c2SCC3)cc1
EC50 [7]: 5.18 µM (active)
EC50 [8]: 0.86 µM (active)
IC50 (Protein Wnt-3a): 1.33 µM (active)

CO/N=C(/C(=O)N[C@@H]1C(=O)N2C(C(=O)O)=CCS[C@H]12)c1cnc(N)s1
IC50 [9]: 0.122 µM (active)
EC50 (Streptococcus): < 0.06 µM (active)
IC50 [10]: 1.33 µM (active)
IC50 (Prothrombin): 54.1 µM (active)
EC50 [11]: < 0.06 µM (active)

COc1cc2oc3cc(C#Cc4ccc(N)cc4)ccc3c(=O)c2cc1OC
IC50 (H9c2): > 79 µM (inactive)
IC50 (CHO): > 49.7 µM (inactive)
IC50 (Beta Lactamase): 3.6 µM (active)

O=C(NCc1ccc(F)cc1)c1cccc2c1C(=O)c1ccc(N3CCOCC3)cc1S2(=O)=O
IC50 [9]: > 100 µM (inactive)
IC50 [10]: 16.6 µM (active)
IC50 (Prothrombin): 24.1 µM (active)

Cc1sc2ncnc(NCc3cccs3)c2c1C
AC50 (INS1): 4.79 µM (active)
IC50 (Protein Wnt-3a): 1.81 µM (active)

O=C(COc1cccc2ccccc12)Nc1ccc(Cl)cc1C(=O)O
IC50 (Genome polyprotein): 37.7 µM (active)
EC50 (cells [12]): > 350 µM (not active)
IC50 [13]: 52.6 µM (inactive)
IC50 [14]: 5.31 µM (active)
EC50 (cells [15]): > 350 µM (not active)
IC50 (Vero): > 25 µM (active)

Cc1nc(SCC(=O)c2cc3ccccc3oc2=O)c(C#N)c(-c2cccs2)c1C(=O)Nc1ccccc1
EC50 [4]: > 99 µM (inactive)
EC50 [6]: > 99 µM (inactive)

C[C@@H]1CN([C@@H](C)CO)S(=O)(=O)c2ccc(C3=CCCCC3)cc2O[C@@H]1CN(C)C(=O)Cc1ccncc1
AC50 [16]: 6.22 µM (active)

Cc1c(/C=N/n2cnnc2)c2ccccc2n1CCOc1ccc(Cl)cc1
EC50 [4]: > 99 µM (inactive)
IC50 (Estrogen receptor): > 50 µM (not active)
EC50 [6]: > 99 µM (inactive)

Cc1cc(C)c(NC(=O)/C(=C/c2ccccc2)c2ccccc2)c(C)c1
IC50 [17]: 10.4 µM (active)
IC50 [18]: > 20 µM (inactive)
IC50 [19]: > 50 µM (not active)
EC50 [20]: > 53 µM (inactive)

O=C(Cc1ccc(Br)cc1)Nc1cccc(S(=O)(=O)N2CCOCC2)c1
IC50 [1]: 82.3 µM (inactive)
IC50 [2]: 3.47 µM (active)
IC50 [3]: 7 µM (active)

Cc1noc(C)c1CSCc1ccc(Cl)cc1
IC50 [17]: 35.6 µM (active)
IC50 [18]: > 20 µM (inactive)
EC50 [20]: > 53 µM (inactive)
